Source: patent publication US20150297534A1, “METHODS AND COMPOSITIONS FOR THE MEDIATION OF NSAID-INDUCED REACTIONS” (NuBioPharma, LLC, priority 2014, published 2015)
Blank lines part the entries; values can stand above or below the compound they belong to.

Assays:
[1] = test system: PGE2 formation in human whole blood; experiment: PGE2 formation in LPS-stimulated human whole blood (in vitro incubation); format: cell-based; conditions: LPS 10 µg/ml, 18 hours; for inhibition of PGE2 formation: alone or in combination; for inhibition of PGE2 compared with 6-keto PGF1α formation (FIG. 1): varied concentrations, compound alone
Description: Determination of PGE2 and 6-keto PGF1α Formation in Human Whole Blood: Peripheral blood from healthy adult volunteers, who had not received any medication for at least 2 weeks under informed consent, was obtained by venipuncture and collected in a vacutainer blood collection tube containing heparin. Aliquots of whole blood (0.8 ml) were mixed with aspirin (50 μM) and volume was adjusted to 1 ml with PBS containing 6 mM glucose. The blood was incubated with the indicated compounds for 5 mins. at room temperature; and then stimulated with lipopolysaccharide (10 μg/ml) for 18 h at 37° C. Prostanoid formation was stopped on ice and the samples were centrifuged (2300 g, 10 min, 4° C.), and 6-keto PGF1α was quantified in the supernatant using High Sensitivity ELISA Kit for 6-keto PGF1α according to the manufacturer's protocols (Calbiochem). PGE2 was determined after solid-phase extraction, RP-HPLC and an ELISA according to the procedures of Koeberle et al. [J Pharmacol Exp Ther. 2008; 326(3):975-82].
Synergistic interaction between compounds was analyzed by the sensitization method (Harvey, R. J., J. Theor. Biol. 74: 411-437, 1978). Briefly, sensitization is measured as the ratio between observed and expected inhibition of PGE2. The expected level of activity (Ae) is calculated by Aβ=1−((1−A1)*(1−A2)) (^3) where A1 and A2 are the activities of drugs 1 and 2 alone at the concentration used in the combination (Harvey, R. J., J. Theor. Biol. 74: 411-437, 1978).

IL-1β = IL-1β in LPS-stimulated human whole blood (in vitro incubation); format: cell-based; conditions: whole human blood stimulated with LPS (FIG. 5); read-out: suppression of IL-1 beta, IC50
Description: (§1) Determination of Inflammatory Cytokines (IL-1β & TNF-α) in Human Whole Blood: Blood from healthy adult volunteers was obtained in vacutainer blood collection tubes containing heparin as described above. Aliquots of whole blood (0.2 ml) were diluted with serum-free medium (RPMI-SF) in 24-well culture plates and volume was adjusted to 1 ml. The blood was incubated with the indicated compounds for 5 minutes at room temperature, and then stimulated with lipopolysaccharide (10 μg/ml) for 6 h at 37° C. with 5% CO2. Reaction was stopped on ice, the samples were centrifuged (2300 g, 10 mins., 4° C.), and of Inflammatory Cytokines IL-1β& TNF-α were estimated in the supernatant using High Sensitivity ELISA Kits according to the manufacturer's protocols (R&D Biosystems).

TNF-α [2] = experiment: TNF-α in LPS-stimulated human whole blood (in vitro incubation); format: cell-based; conditions: whole human blood stimulated with LPS (FIG. 4)
Description: as §1

[3] = Healthy volunteer study: total plasma concentration of ibuprofen by HPLC; format: in vivo, human; conditions: SE in parentheses; for concentration at 105 min: plasma
Description: Human Healthy Volunteer Clinical Study: Volunteers with acute or chronic diseases, medical history of gastrointestinal ulcers or allergy to NSAIDs were not included. Volunteers were not permitted to receive any NSAIDs for 2 weeks before and throughout the duration of the study. The study was conducted in an open-label, crossover design with a seven-day washout period between each treatment. Volunteer 1 was given a single oral dose of 400 mg of ibuprofen (Baby Advil Suspension) with 240 mL of water. […] A Blood sample (6 ml), obtained via an indwelling catheter inserted into an arm vein, and was collected into a tube containing heparin immediately prior to an ibuprofen dosing and at the following times thereafter: 65, 105, and 115 mins. after dosing. An aliquot of blood was used for determination of PGE2 and TNF-α after LPS stimulation as described above. Plasma was separated by centrifugation at 1000 g for 10 minutes at room temperature from the remaining blood for ibuprofen assay. After seven days (washout period), the same volunteer was given a single oral dose of 100 mg ibuprofen (Baby Advil Suspension) with 240 mL of water. A 6.0 mL blood sample for the determination of PGE2 and TNF-α after LPS stimulation and for the estimation of plasma levels of ibuprofen were drawn into tubes through an indwelling cannula before dosing and at 75, 125, and 155 mins. after dosing.
Total plasma concentrations of ibuprofen were determined by high-performance liquid chromatography (HPLC.) system that consisted of a Model 510 pump, a Model 486 variable wavelength UV detector and a computer loaded with the Millenium software, all from Waters Associates (Milford, Mas). To 100 μl of plasma was added 100 μl of internal standard solution (naproxen 10 μg/ml in 65% methanol and 1% acetic acid) followed by […]. Following vortex-mixing (30 s) and centrifugation (1000 g, 5 mins.), the supernatant was evaporated to dryness, and reconstituted in 100 μl of 65% methanol and 1% acetic acid immediately prior to injection onto a reversed phase column (ρBondaPak C18) eluted with methanol:1% acetic acid (65:35), pumped at 1.0 ml min. The column eluent was monitored at 210 nm. The height of the ibuprofen peak was divided by the height of the internal standard peak and this ratio was used to determine ibuprofen concentrations from a standard curve of ibuprofen.
A Blood sample (6 ml), immediately prior to dosing and at 105 minutes after dosing was obtained as described above. Production of PGE2, 6-keto PGF1α and TNF-α after LPS stimulation and plasma concentrations were determined as described above.
A blood sample (6 ml), immediately prior to dosing and at 105 min after dosing was obtained as described above. Production of PGE2, 6-keto PGF1α and TNF-α after LPS stimulation and plasma concentrations were determined as described above.

PGE2 = experiment: Healthy volunteer crossover study: PGE2 production in LPS-stimulated blood after oral dosing; format: in vivo, human; conditions: LPS stimulation
Description: Peripheral blood from healthy adult volunteers, who had not received any medication for at least 2 weeks under informed consent, was obtained by venipuncture and collected in a vacutainer blood collection tube containing heparin. Aliquots of whole blood (0.8 ml) were mixed with aspirin (50 μM) and volume was adjusted to 1 ml with PBS containing 6 mM glucose. The blood was incubated with the indicated compounds for 5 mins. at room temperature; and then stimulated with lipopolysaccharide (10 μg/ml) for 18 h at 37° C. […] PGE2 was determined after solid-phase extraction, RP-HPLC and an ELISA according to the procedures of Koeberle et al. [J Pharmacol Exp Ther. 2008; 326(3):975-82]. Human Healthy Volunteer Clinical Study: Volunteers with acute or chronic diseases, medical history of gastrointestinal ulcers or allergy to NSAIDs were not included. Volunteers were not permitted to receive any NSAIDs for 2 weeks before and throughout the duration of the study. The study was conducted in an open-label, crossover design with a seven-day washout period between each treatment. […] Administration of the study medication was supervised by the investigator to ensure that the drug had been swallowed. […] An aliquot of blood was used for determination of PGE2 and TNF-α after LPS stimulation as described above. […] A Blood sample (6 ml), immediately prior to dosing and at 105 minutes after dosing was obtained as described above. […] A blood sample (6 ml), immediately prior to dosing and at 105 min after dosing was obtained as described above.

6-keto PGF1α = experiment: Healthy volunteer crossover study: 6-keto PGF1α production in LPS-stimulated blood after oral dosing; format: in vivo, human; conditions: single oral dose, blood 105 min after dosing, LPS stimulation, SE in parentheses
Description: Peripheral blood from healthy adult volunteers, who had not received any medication for at least 2 weeks under informed consent, was obtained by venipuncture and collected in a vacutainer blood collection tube containing heparin. Aliquots of whole blood (0.8 ml) were mixed with aspirin (50 μM) and volume was adjusted to 1 ml with PBS containing 6 mM glucose. The blood was incubated with the indicated compounds for 5 mins. at room temperature; and then stimulated with lipopolysaccharide (10 μg/ml) for 18 h at 37° C. […] PGE2 was determined after solid-phase extraction, RP-HPLC and an ELISA according to the procedures of Koeberle et al. [J Pharmacol Exp Ther. 2008; 326(3):975-82]. […] A Blood sample (6 ml), immediately prior to dosing and at 105 minutes after dosing was obtained as described above. […] A blood sample (6 ml), immediately prior to dosing and at 105 min after dosing was obtained as described above.

TNF-α [4] = experiment: Healthy volunteer study: TNF-α in LPS-stimulated blood after ibuprofen dosing; format: in vivo, human; conditions: volunteer 1; single oral dose 400 mg ibuprofen; blood 65 minutes after dosing, LPS stimulation (FIG. 3)
Description: as §1
Human Healthy Volunteer Clinical Study: Volunteers with acute or chronic diseases, medical history of gastrointestinal ulcers or allergy to NSAIDs were not included. Volunteers were not permitted to receive any NSAIDs for 2 weeks before and throughout the duration of the study. The study was conducted in an open-label, crossover design with a seven-day washout period between each treatment. Volunteer 1 was given a single oral dose of 400 mg of ibuprofen (Baby Advil Suspension) with 240 mL of water. Administration of the study medication was supervised by the investigator to ensure that the drug had been swallowed. […]

gastric ulcers = conditions: ibuprofen 2400 mg/day, daily use for 24 weeks, arthritis patients; cited from earlier work
[5] = curcumin 10 µM, ibuprofen 20 µM
[6] = Human Volunteer 1, single oral dose, ibuprofen 50 mg (curcumin 200 mg, phosphatidylcholine 400 mg where included), 105 min after dosing
[7] = Human Volunteer 2, single oral dose, ibuprofen 40 mg (curcumin 200 mg, phosphatidylcholine 400 mg where included), 105 min after dosing

IC50 (IL-1β): 14 µM
SMILES: COc1cc(/C=C/C(=O)CC(=O)/C=C/c2ccc(O)c(OC)c2)ccc1O [Curcumin]
inhibition of PGE2 formation ([1]; curcumin 3 µM, ibuprofen 4 µM): did not inhibit PGE2 formation
inhibition of PGE2 formation [1, 5]: no detectable inhibition
inhibition of PGE2 compared with 6-keto PGF1α formation (FIG. 1) [1]: inhibited PGE2 more potently than 6-keto PGF1α
suppression of ibuprofen-induced stimulation of TNF-α (TNF-α [2]; curcumin 10 µM co-incubated with ibuprofen 20 µM): suppressed the deleterious stimulation of TNF-α

Plasma ibuprofen (ug/ml) ([3]; Human Volunteer 1, single oral dose ibuprofen 100 mg): 3.0 (0.5) ug/ml
Plasma ibuprofen ([3]; Human Volunteer 1, single oral dose ibuprofen 100 mg, listed as ibuprofen): 3.0 µg/mL
Plasma ibuprofen (ug/ml) ([3]; Human Volunteer 1, single oral dose ibuprofen 400 mg): 44.0 (3.0) ug/ml
Plasma ibuprofen (ug/ml) [3, 6]: 1.7 (0.15) ug/ml
Plasma ibuprofen (ug/ml) [3, 7]: 0.42 (0.06) ug/ml
concentration at 105 min [3, 6]: 1700 ng/mL
concentration at 105 min [3, 7]: 420 ng/mL
SMILES: CC(C)Cc1ccc(C(C)C(=O)O)cc1 (stereo not shown) [Ibuprofen]
inhibition of PGE2 formation ([1]; curcumin 3 µM, ibuprofen 4 µM): did not inhibit PGE2 formation
inhibition of PGE2 formation [1, 5]: 38%
inhibition of PGE2 compared with 6-keto PGF1α formation (FIG. 1) [1]: inhibited the formation of both the prostanoids PGE2 and 6-keto PGF1α, to about the same extent
stimulation of TNF-α (TNF-α [2]; ibuprofen 20 µM and 100 µM alone): dose-dependent stimulation of TNF-α
PGE2 (% inhibition) (PGE2; Human Volunteer 1, single oral dose ibuprofen 100 mg, SE in parentheses): 71 % inhibition
PGE2 (% inhibition) (PGE2; Human Volunteer 1, single oral dose ibuprofen 400 mg, SE in parentheses): 88 (2) % inhibition
PGE2 (% inhibition) (PGE2; Human Volunteer 1, single oral dose ibuprofen 400 mg, SE in parentheses, listed as ibuprofen): about 90 % inhibition
PGE2 (% inhibition) (PGE2; Human Volunteer 1, single oral dose, ibuprofen 50 mg (curcumin 200 mg, phosphatidylcholine 400 mg where included), blood 105 min after dosing, SE of 3 measurements in parentheses): 56 (3) % inhibition
PGE2 (% inhibition) (PGE2; Human Volunteer 2, single oral dose, ibuprofen 40 mg (curcumin 200 mg, phosphatidylcholine 400 mg where included), blood 105 min after dosing, SE in parentheses): 29 % inhibition
6-keto PGF1α (% inhibition) (6-keto PGF1α; Human Volunteer 1, ibuprofen 50 mg (curcumin 200 mg, phosphatidylcholine 400 mg where included)): 61 (6) % inhibition
6-keto PGF1α (% inhibition) (6-keto PGF1α; Human Volunteer 2, ibuprofen 40 mg (curcumin 200 mg, phosphatidylcholine 400 mg where included)): 35 % inhibition
increase in TNF-α after ibuprofen dosing (TNF-α [4]): 3.5 fold
incidence of gastric ulcers (gastric ulcers): 22.9%
